According to patent publication US20060229358A1, “Pharmaceutical composition containing flavonoids” (Taipei Medical University, priority 2005, published 2006):
Like-named read-outs stand apart in the source and are kept apart here.

Tests used:
[1] = target: T1, PDE2 (Cavia porcellus, UniProt A0A286XUV5); experiment: Inhibition of cyclic nucleotide PDE activity (Assay I), PDE2; assay type: biochemical, guinea pig
T1 sequence (A0A286XUV5 22-936): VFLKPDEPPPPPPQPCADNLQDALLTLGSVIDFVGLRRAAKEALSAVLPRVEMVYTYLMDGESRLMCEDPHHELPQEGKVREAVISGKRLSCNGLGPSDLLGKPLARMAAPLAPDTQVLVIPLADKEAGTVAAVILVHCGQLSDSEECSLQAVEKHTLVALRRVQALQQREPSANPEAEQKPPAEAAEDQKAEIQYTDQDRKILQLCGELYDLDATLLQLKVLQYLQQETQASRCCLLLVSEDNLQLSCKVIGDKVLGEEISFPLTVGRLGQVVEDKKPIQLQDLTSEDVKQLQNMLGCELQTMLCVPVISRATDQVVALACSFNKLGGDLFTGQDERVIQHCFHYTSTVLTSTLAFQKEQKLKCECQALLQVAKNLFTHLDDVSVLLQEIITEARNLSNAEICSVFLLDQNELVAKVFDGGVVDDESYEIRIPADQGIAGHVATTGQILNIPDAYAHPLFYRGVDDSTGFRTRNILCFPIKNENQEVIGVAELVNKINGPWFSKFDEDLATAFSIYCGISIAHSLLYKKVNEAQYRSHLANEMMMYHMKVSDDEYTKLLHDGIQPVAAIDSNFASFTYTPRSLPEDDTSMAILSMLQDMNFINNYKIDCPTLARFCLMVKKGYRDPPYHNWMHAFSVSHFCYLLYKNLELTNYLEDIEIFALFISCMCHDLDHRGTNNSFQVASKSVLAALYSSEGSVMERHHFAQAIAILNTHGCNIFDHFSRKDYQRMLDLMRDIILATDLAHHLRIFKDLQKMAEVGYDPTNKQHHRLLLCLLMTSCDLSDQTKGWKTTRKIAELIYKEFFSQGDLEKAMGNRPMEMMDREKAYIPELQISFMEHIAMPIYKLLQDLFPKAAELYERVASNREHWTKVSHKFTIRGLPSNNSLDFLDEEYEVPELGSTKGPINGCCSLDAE
Experimental: (§1) Under a protocol approved by the Animal Care and Use Committee of Taipei Medical University, five male guinea pigs (Hartley), weighing 500-600 g, were sacrificed. The lungs (15 g) or hearts (4 g) taken therefrom were chopped into small pieces and homogenized with a glass/teflon homogenizer (Glas-Col, Terre Haute, Ind., USA) in 10 volumes of cold medium (pH 6.5) containing 20 mM Bis-Tris, 2 mM benzamidine, 2 mM EDTA, 50 mM sodium chloride, 0.1 mM phenylmethanesulfonyl fluoride (PMSF), and 1 mM dithiothreitol. At 4° C., the homogenate was centrifuged at 170 g for 15 min, and the supernatant thereof was then re-centrifuged at 40,000 g for 30 min. […] The column was washed with two bed volumes of homogenate buffer to remove unbound material, where the resin beads therein will bind with proteins, such as PDE proteins. Proteins bound to the Q-sepharose beads were eluted with various concentrations (0.23, 0.34, 0.44, 0.69, and 1.00 M) of NaCl dissolved in homogenate buffer (for each concentration, 40-50 mL elution buffer were applied) at a flow rate of 30 ml/h. Fractions (3 ml each) were collected, and ethylene glycol (EG) was added thereto until a final concentration of 30% (v/v). And then the samples were frozen at −70° C.
(§2) The activities of PDE1-5 in the homogenate were measured with a two-step procedure according to the method of Thompson and Appleman, using cAMP with [^3H]-cAMP or cGMP with [^3 H]-cGMP as substrates. The PDE enzyme prepared (25 μl) with 10 μl inhibitor or the solvents therefor was incubated for 30 min at 37° C. in a total assay buffer, where the final volume of the assay is amounted to 100 μl. In accordance with the features of the PDE isozymes, the assay buffer contains 50 mM Tris/HCl (pH 7.4), 3 mM MgCl2, 1 mM dithiothreitol, and 0.05% BSA, and optionally contains 1 uM cAMP with 0.2 μCi [^3H]-cAMP as a substrate alone or in the presence of 0.1 unit calmodulin with 10 μM CaCl2, or 5 μM cGMP, and 1 μM cGMP with 0.2 μCi [^3H]-cGMP as another substrate alone or in the presence of 0.1 unit calmodulin with 10 μM CaCl2.
(§3) The PDE enzyme and the inhibitors (or their solvent) therefor were mixed and incubated on ice for 30 min previously, and then mixed with the assay buffer. The assay was initiated by transferring the mixture to a water bath at 37° C. Following the other 30 min incubation, the reaction was stopped by transferring the reaction vessel to a bath of boiling water for 3 min. After cooling on ice, 20 μl of the 1 mg/ml of Crotalus atrox venom was added to the reaction mixture, and the mixture was incubated at 37° C. for 10 min. The uncatalyzed substrates, such as cAMP, [^3H]-cAMP, cGMP, or [^3H]-cGMP were removed by the addition of 500 μl of a 1-in-1 Tris-HCl (40 mM) buffer suspension of Dowex resin (1×8-200) with incubation on ice for 30 min, since the bindings of the cyclic nucleotides and the resin. Each tube was then centrifuged for 2 min at 6000 rpm, and 100 μl of the supernatant was removed and counted by a β-counter for calculating the enzyme (PDEs) activity.
The IC50 values of flavonoids and various reference drugs were calculated using non-linear regression analysis by the software SigmaPlot 7.0 (Sigma Chemical, St. Louis Mo., USA). All values are shown as the mean±S.E.M. Differences among values, which are equal or greater to three groups, were statistically calculated by one-way analysis of variance (ANOVA), and then determined by the least significant difference (LSD). The difference between two values, however, was determined by use of Student's unpaired t-test. Differences were considered statistically significant if the P-value was less than 0.05.

[2] = system: T2, PDE4; experiment: Inhibition of cyclic nucleotide PDE activity (Assay I), PDE4, incl. Lineweaver-Burk analysis; assay type: biochemical, guinea pig; conditions: for IC50: mean ± S.E.M. (n), read-out: IC50 on phosphodiesterase isozyme 4
T2 construct: IC50 on phosphodiesterase isozyme 4; other: mean ± S.E.M. (n)
Experimental: as §1, §2, §3
The dissociation constant of inhibitor binding (Ki) value was determined from the equation of apparent Km as a function of the inhibitor concentration (insert in A and B, respectively). The slope of the equation is equal to the value of […] (where KM is Michaelis constant). The amounts of the total proteins are calculated based on the analytical method reported by Bradford. In FIGS. 1A and 1B, all enzyme activities are shown as nmole of substrate per mg of proteins per minute (nmole/mg/min) hydrolyzed.
The IC50 values of flavonoids and various reference drugs were calculated using non-linear regression analysis by the software SigmaPlot 7.0 (Sigma Chemical, St. Louis Mo., USA).

[3] = mean ± S.E.M. (n), read-out: IC50 on phosphodiesterase isozyme 2

SMILES	IC50 [1, 3]	IC50 [2]	IC50 [1]	mode of inhibition of PDE4 enzyme activity ([2]; Lineweaver-Burk plot, cAMP substrate, FIG. 1A)
O=c1c(O)c(-c2cc(O)c(O)c(O)c2)oc2cc(O)cc(O)c12 [Myricetin]	12.8 ± 0.6 µM	–	–	–
O=C1CC(c2ccc(O)c(O)c2)Oc2cc(O)cc(O)c21 (stereo not shown) [Eriodictyol]	> 100 µM	> 100 µM	–	–
COc1cc(O)c2c(=O)c(-c3ccc(O)cc3)coc2c1 [Prunetin]	–	–	> 100 µM	–
O=c1c(-c2ccc(O)cc2)coc2cc(O)cc(O)c12 [Genistein]	1.7 ± 0.2 µM	–	–	–
O=c1cc(-c2ccc(O)c(O)c2)oc2cc(O)cc(O)c12 [Luteolin]	13.3 ± 0.8 µM	19.1 ± 2.4 µM	–	–
COc1ccc(C2CC(=O)c3c(O)cc(O)cc3O2)cc1O (stereo not shown) [Hesperetin]	> 100 µM	–	–	competitively inhibits
O=c1c(O)c(-c2ccc(O)c(O)c2)oc2cc(O)cc(O)c12 [Quercetin]	17.9 ± 3.4 µM	–	–	–
COc1ccc(-c2coc3cc(O)cc(O)c3c2=O)cc1 [Biochanin A]	27.9 ± 4.1 µM	–	–	–
O=c1cc(-c2ccc(O)cc2)oc2cc(O)cc(O)c12 [Apigenin]	16.7 ± 6.3 µM	> 100 µM	–	–
O=c1c(-c2ccc(O)cc2)coc2cc(O)ccc12 [Daidzein]	> 100 µM	> 100 µM	–	–
O=c1cc(-c2ccccc2)oc2cc(O)cc(O)c12 [Chrysin]	> 100 µM	> 100 µM	–	–
O=c1cc(-c2ccc(O)c(O)c2)oc2cc(O[C@@H]3O[C@H](CO)[C@@H](O)[C@H](O)[C@H]3O)cc(O)c12 [Luteolin-7-glucoside]	35.1 ± 0.2 µM	43 ± 5.3 µM	–	–
